Assay: Excretion in bile-duct cannulated rats
Type: in vivo, rat

## CCn1c(C(=O)N(C2CC2)C2CC2)cc2c3c(ncn3C)c(Nc3cc(C)n(C)n3)nc21 [BMS-911543]
  direct excretion in bile and urine: < 2 % of total clearance

Source: paper PMC4452934 (CPT: Pharmacometrics & Systems Pharmacology, 2015)
